In general, Kd refers to the free concentration of one partner at which half of the binding sites on the other are occupied at equilibrium, for simple one-to-one binding. The low end stands for a tighter complex, the high end for a looser complex.

Where “and” joins values, the source holds several entries; their conditions need not be identical. Identical values can stand only once.

The results in this text go back to article PMC10058761, “Heart-Type Fatty Acid Binding Protein Binds Long-Chain Acylcarnitines and Protects against Lipotoxicity” (International Journal of Molecular Sciences, 2023).

Assay [1] deals with T1, human FABP3 (Homo sapiens, UniProt P05413).
T1 construct: His-tag (N); TEV cleavage site (N); made in house; host or cells: E. coli BL21(DE3)
Kind of assay: ITC assay of ligand binding to apo-FABP3. Particulars: for binding to FABP3 (binding heat effects) by ITC / Kd / ΔG / ΔH / −TΔS / N (stoichiometry): KPi pH 7.6, 25 °C; for N (stoichiometry): protein assumed 100% active and delipidated. The protocol: ITC experiments were carried out on the MicroCal™ iTC200 instrument (Malvern Instruments Ltd., Malvern, UK). Experiments were performed in KPi buffer without and with 0.1% (v/v) TX supplement. […] Experiments for the determination of the ΔCp were performed at three different temperatures: 16, 25, and 37 °C. […] Every titration started with a small 0.3 μL injection introduced to compensate for the diffusion effects. One of the following injection profiles was chosen based on the activity of the ligand and binding heat released: 1.2 μL × 32 or 1.5 μL × 26—all with 120 s time spacing between every injection and 600 rpm. Each ligand was titrated at least two times. The reference baseline consisting of small peaks of identical size (titration of the corresponding ligand into the buffer) was subtracted from the data before fitting to correct for the heat of the ligand dilution. The first injection was excluded from each dataset. The final data were fitted to a theoretical titration curve (one set of sites fitting model) using MicroCal Origin 7 SR4 software (OriginLab, Northampton, MA, USA).
In general terms: In ITC the heat of successive injections is recorded.

In assay [2] the target is T1, human FABP3. Kind of assay: Ligand binding by NMR (2D 1H-15N HSQC chemical shift perturbations). Particulars: KPi buffer pH 7.6. The protocol: NMR spectra were acquired on the 600 MHz Bruker Avance Neo spectrometer (Bruker Biospin GmbH, Rheinstetten, Germany) equipped with a 5-mm quadruple-resonance CryoProbe (QCI) with z-gradients. […] All experiments were performed in KPi buffer without or with TX and with the addition of 7% (v/v) D2O, 0.03% (v/v) NaN3, and 0.01% (v/v) SigmaFAST EDTA-free protease inhibitor cocktail to prevent protein degradation. The amount of organic solvent (ethanol or DMSO-d6) was below 2% (v/v) in each experiment.
3D HNCA, 3D HNCO, 3D HN(CA)CO, and 3D CBCA(CO)NH spectra were acquired for the backbone assignment. 3D [^1H,^1H]-nuclear Overhauser spectroscopy (NOESY)-^15N-heteronuclear single-quantum correlation (HSQC) spectrum was acquired using a mixing time of 100 ms and also used in the backbone assignment. 2D ^1H-^15N HSQC spectra were acquired for evaluation of the CSPs caused by the lipid binding. Chemical shifts were referenced internally to the residual water signal at 4.70 ppm relative to the 4,4-dimethyl-4-silapentane-1-sulfonic acid (DSS). […] Other complexes were analyzed by analogy and with the help of 3D [^1H-^1H]-NOESY-^15N-HSQC. All spectra were processed in TopSpin v. 4.1.1. (Bruker, Billerica, MA, USA) and analyzed in CARA 1.9.1. software. Residue-specific protein backbone amide assignment was performed based on the published chemical shifts. CSPs, Δδ, were calculated using Equation (1) with the scaling factor, α, which was set to 0.1 [67, 68]. (1) Δδ=1/2[δH2+α·δN^2],

Assay [3] addresses T1, human FABP3. The experiment in a line: ITC competitive binding experiments (FABP3 pre-saturated with a competing ligand). The note with it: FABP3 saturated with C18:1(n-9)t-carnitine, titrated with the FA, 25 °C. The protocol:
ITC experiments were carried out on the MicroCal™ iTC200 instrument (Malvern Instruments Ltd., Malvern, UK). Experiments were performed in KPi buffer without and with 0.1% (v/v) TX supplement. All titrations except for the determination of the heat capacity, ΔCp, were performed at 25 °C using 20–120 μM protein. Experiments for the determination of the ΔCp were performed at three different temperatures: 16, 25, and 37 °C. 280 μL of the protein solution in the sample cell were titrated with the ligand solution diluted to 200–1200 μM depending on the enzyme concentration (to achieve a 1:10 or 1:5 ratio). Every titration started with a small 0.3 μL injection introduced to compensate for the diffusion effects. One of the following injection profiles was chosen based on the activity of the ligand and binding heat released: 1.2 μL × 32 or 1.5 μL × 26—all with 120 s time spacing between every injection and 600 rpm. Each ligand was titrated at least two times. The reference baseline consisting of small peaks of identical size (titration of the corresponding ligand into the buffer) was subtracted from the data before fitting to correct for the heat of the ligand dilution. The first injection was excluded from each dataset. […]

Assay [4] concerns the target T1, human FABP3. Kind of assay: ITC determination of heat capacity change at 16, 25 and 37 °C. The note with it: KPi with 0.1% TX; ΔH at 16, 25, 37 °C, linear regression. Type of assay: binding. The text has this: Heat capacity changes, ΔCp, are important indicators of the structural changes during ligand-to-protein binding in various environmental conditions and may reflect changes in the static and dynamic properties of the protein [33, 34]. Moreover, it may represent interactions with extra supplements, such as salts and detergents, and larger processes, such as changes in protein folding, solvent-accessible surface area (SASA), or protonation states within the active site. […] Thermodynamic parameters for the remaining LCFAs were determined in the KPi + TX buffer, while LCACs were tested in the KPi buffer without any additive. Figure 7 represents an example of the overlays of the ITC experiments for C18:1(n-9)c and the corresponding LCAC performed at the following temperatures: 16, 25, and 37 °C.
ITC experiments were carried out on the MicroCal™ iTC200 instrument (Malvern Instruments Ltd., Malvern, UK). Experiments were performed in KPi buffer without and with 0.1% (v/v) TX supplement. All titrations except for the determination of the heat capacity, ΔCp, were performed at 25 °C using 20–120 μM protein. Experiments for the determination of the ΔCp were performed at three different temperatures: 16, 25, and 37 °C. 280 μL of the protein solution in the sample cell were titrated with the ligand solution diluted to 200–1200 μM depending on the enzyme concentration (to achieve a 1:10 or 1:5 ratio). Every titration started with a small 0.3 μL injection introduced to compensate for the diffusion effects. One of the following injection profiles was chosen based on the activity of the ligand and binding heat released: 1.2 μL × 32 or 1.5 μL × 26—all with 120 s time spacing between every injection and 600 rpm. Each ligand was titrated at least two times. The reference baseline consisting of small peaks of identical size (titration of the corresponding ligand into the buffer) was subtracted from the data before fitting to correct for the heat of the ligand dilution. The first injection was excluded from each dataset. The final data were fitted to a theoretical titration curve (one set of sites fitting model) using MicroCal Origin 7 SR4 software (OriginLab, Northampton, MA, USA).

[5] abbreviates: KPi + 0.10% TX, Competitive Binding model.
Setting [6] is: KPi + 0.10% TX, One Set of Sites model.
Setting [7] is: KPi without TX, Competitive Binding model.
[8] abbreviates: KPi without TX, One Set of Sites model.

T1 sequence (P05413 whole entry): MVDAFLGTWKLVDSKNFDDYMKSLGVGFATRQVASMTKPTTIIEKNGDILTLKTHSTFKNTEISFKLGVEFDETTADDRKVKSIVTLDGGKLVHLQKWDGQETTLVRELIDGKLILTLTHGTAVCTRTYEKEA

For `CCCCCCCC(=O)O[C@H](CC(=O)O)C[N+](C)(C)C.[Cl-]` [C8:0-carnitine], the “binding to FABP3 (binding heat effects) by ITC” value in assay [1] (without TX) is recorded as “no binding”. In addition, the “binding to FABP3 by NMR (CSPs in 2D 1H-15N HSQC)” value (“binding to FABP3 by NMR” below) in assay [2] is “did not bind”.

In the case of `CCCCCCCCCCCCCCCCCC(=O)O` [C18:0, stearate], in assay [1] (with 0.1% TX), binding was characterised by a dissociation constant (Kd) of 0.7 ± 0.1 µM, the ΔG was -8.34 ± 0.04 kcal/mol, the ΔH was -6.4 ± 0.4 kcal/mol and the “−TΔS” value was -2.0 ± 0.4 kcal/mol. Further, the “N (stoichiometry)” value in assay [1] (with 0.1% TX) is 1.0.

As to `C[N+](C)(C)C[C@H](O)CC(=O)[O-]` [carnitine, L-carnitine], in assay [2], the “binding to FABP3 by NMR” value is listed as “neither bind nor interact”.

`CCCCCCCCCCCCCC(=O)O[C@H](CC(=O)O)C[N+](C)(C)C.[Cl-]` [C14:0-carnitine, miristoylcarnitine]: in assay [1] (without TX), binding was characterised by a dissociation constant (Kd) of 11.3 µM, the ΔG was -6.7 kcal/mol, the ΔH is -1.1 kcal/mol and the “−TΔS” value is -5.7 kcal/mol. Moreover, the “N (stoichiometry)” value in assay [1] (without TX) was 0.5. In addition, the “binding to FABP3 by NMR” value in assay [2] is “strong CSPs indicative of binding”.

As for `CCCCCCCCCCCCCCCC(=O)SCCNC(=O)CCNC(=O)[C@H](O)C(C)(C)COP(=O)(O)OP(=O)(O)OC[C@H]1O[C@@H](n2cnc3c(N)ncnc32)[C@H](O)[C@@H]1OP(=O)(O)O` [C16:0-CoA, palmitoyl-CoA], in assay [1] (without TX), binding was put at a Kd of 8.9 ± 1.2 µM, the ΔG was -6.90 ± 0.08 kcal/mol, the ΔH is -5.04 ± 0.09 kcal/mol and the “−TΔS” value is -1.86 ± 0.01 kcal/mol. Also, in assay [1] (without TX), the “N (stoichiometry)” value was 1.0. Also, in assay [1] (KPi with TX detergent), the “effect of detergent addition on binding to FABP3 (ITC)” value is on record as “completely blocked the binding”. Further, the “binding to FABP3 by NMR” value in assay [2] was “strong CSPs indicative of binding”.

In the case of `CCCCCCCCCCCCCCCC(=O)O` [C16:0, palmitate], in assay [3] (setting [5]), the “-TΔS” value turned out to be 0.2 ± 0.1 kcal/mol, the ΔG is -11.62 kcal/mol and the ΔH was -11.77 kcal/mol. For the same molecule, in assay [3] (setting [6]), the “-TΔS” value is -1.14 ± 0.05 kcal/mol, the ΔG is -8.63 ± 0.01 kcal/mol and the ΔH is -7.49 ± 0.05 kcal/mol. Also, in assay [1] (with 0.1% TX), the ΔG was -9.34 ± 0.07 kcal/mol, the ΔH was -8.7 ± 0.9 kcal/mol, the “−TΔS” value is -0.6 ± 0.8 kcal/mol and the “N (stoichiometry)” value came to 1.0.

As for `CCCCCCCCCCCCCC(=O)O` [C14:0, myristate], in assay [1] (with 0.1% TX), binding was characterised by a dissociation constant (Kd) of 0.3 ± 0.1 µM, the ΔG was -8.9 ± 0.2 kcal/mol, the ΔH is -10.9 ± 0.4 kcal/mol and the “−TΔS” value was 1.9 ± 0.2 kcal/mol. For the same molecule, the “N (stoichiometry)” value in assay [1] (with 0.1% TX) was determined as 1.0.

In the case of `CC/C=C\C/C=C\C/C=C\C/C=C\C/C=C\CCCC(=O)O` [C20:5(n-3)c, EPA], in assay [1] (with 0.1% TX), binding was characterised by a dissociation constant (Kd) of 1.6 ± 0.2 µM, the ΔG was -7.90 ± 0.07 kcal/mol, the ΔH was -17.4 ± 0.7 kcal/mol and the “−TΔS” value is 9.5 ± 0.8 kcal/mol. In assay [1] (with 0.1% TX), the “N (stoichiometry)” value stood at 1.0. Besides, the ΔCp in assay [4] is given as −0.37 ± 0.03 kcal∙mol^−1∙K^−1.

`CCCCCCCC/C=C/CCCCCCCC(=O)O` [C18:1(n-9)t, elaidate]: in assay [1] (with 0.1% TX), the Kd is 0.21 ± 0.02 µM, the ΔG was -9.12 ± 0.06 kcal/mol, the ΔH is -8.0 ± 0.9 kcal/mol and the “−TΔS” value is -1.1 ± 0.9 kcal/mol. The “N (stoichiometry)” value in assay [1] (with 0.1% TX) was determined as 1.0. In addition, in assay [4], the ΔCp was −0.15 ± 0.02 kcal∙mol^−1∙K^−1.

For `CCCCCCCCCC(=O)O` [C10:0, caprate], in assay [3] (setting [7]), the ΔG was -11.8 ± 0.1 kcal/mol and the ΔH is -14.1 ± 0.2 kcal/mol. Also, in assay [3] (setting [8]), the “-TΔS” value came out at 1.0 ± 0.1 kcal/mol, the equilibrium dissociation constant (Kd) amounted to 0.36 ± 0.07 µM, the ΔG is -8.8 ± 0.1 kcal/mol and the ΔH is -9.8 ± 0.2 kcal/mol. Besides, in assay [1] (with 0.1% TX), the Kd was determined as 0.56 ± 0.02 µM, the ΔG was -8.535 ± 0.007 kcal/mol, the “−TΔS” value stood at 4.7 ± 0.3 kcal/mol and the “N (stoichiometry)” value is listed as 1.0. For the same molecule, in assay [1] (without TX), the Kd is 0.252 ± 0.004 µM; the ΔG was -9.01 ± 0.01 kcal/mol; the ΔH is -11.09 kcal/mol and -11.09 ± 0.08 kcal/mol; the “−TΔS” value came to 2.08 ± 0.08 kcal/mol. The “N (stoichiometry)” value in assay [1] (without TX) amounted to 1.0.

For `CCCCCCCC(=O)O` [C8:0, caprylate], in assay [1] (with 0.1% TX), binding was put at a Kd of 1.109 ± 0.001 µM, the ΔG was -8.13 ± 0.01 kcal/mol, the ΔH was -12.6 ± 0.3 kcal/mol and the “−TΔS” value amounted to 4.5 ± 0.3 kcal/mol. In assay [1] (with 0.1% TX), the “N (stoichiometry)” value is on record as 1.0. Moreover, in assay [1] (without TX), binding was put at a Kd of 1.86 ± 0.05 µM, the ΔG was -7.82 ± 0.02 kcal/mol, the ΔH was -8.01 ± 0.09 kcal/mol and the “−TΔS” value amounted to 0.19 ± 0.07 kcal/mol. The “N (stoichiometry)” value in assay [1] (without TX) was 1.0.

For the molecule `CCCCCCCCCCCC(=O)O[C@H](CC(=O)O)C[N+](C)(C)C` [C12:0-carnitine], the “binding to FABP3 (binding heat effects) by ITC” value in assay [1] (without TX) is given as “no binding”. Further, in assay [2], the “binding to FABP3 by NMR” value is “did not bind”.

Take Triton™ X-100 [TX]: the “binding to FABP3 by NMR” value in assay [2] was “did not interact with the FABP3 core structure”.
